For one data set, the system named is mouse model of lung IRI. As to the kind of experiment: Murine lung IR model (left-lung hilar ligation), pre-treatment with P2Y2R inhibitor. The note with it: AR-C 5 mg/kg via jugular vein 1 hr prior to hilar ligation; 1 h ischemia + 2 h reperfusion. Format: in vivo, mice. As for the experimental part: Murine lung IR model. A left-lung hilar-ligation model of IRI in mice involving 1 hour of ligation (ischemia) followed by 2 hours of reperfusion.^9,20 Partial pressure of oxygen, lung compliance, lung edema, neutrophil infiltration, and cytokine levels in bronchoalveolar lavage fluid were assessed. Exposure of small pulmonary arteries and pulmonary microvascular endothelial cells to acute hypoxia-reoxygenation were used as ex vivo and in vitro surrogate models of IR, respectively.
Murine lung IR model: A well-established left lung IRI model involving temporary in vivo ligation of the left hilum (pulmonary artery, vein, and airway) was used.^6 Briefly, mice were anesthetized with inhaled isoflurane, intubated, ventilated with room air at 150 strokes/min with a tidal volume of […] (Harvard Apparatus Co, South Natick, MA), and heparinized (20 U/kg: Hospira Inc, Lake Forest, IL). […] Animals were again extubated, recovered in their cage, and monitored during the 2-hour reperfusion period. […]
Partial pressure of arterial oxygen (PaO2): After reperfusion, animals were anesthetized, intubated, and ventilated with 100% oxygen. […] Left lung-specific PaO2 was immediately measured using an i-STAT handheld blood analyzer and CG4+ cartridge (Abbott Point of Care, Princeton, NJ).
Lung wet-to-dry weight ratio: Lung wet-to-dry weight ratio was measured as an indicator of pulmonary edema. […]

The subject of data set [1] is endothelium of human small PAs. The experiment in a line: Baseline endothelial Ca2+ signaling in freshly isolated small PAs from human lungs exposed to HR. The data set is classed as cell-based. The note with it: ARC; human small PAs (~50 μm). On the procedure: Ca^2+ imaging in Pas: Ca^2+ imaging in small Pas was performed as previously described.8 Fourth-order, small (~50 μm diameter) Pas (see FIG. 1B) were dissected from left lungs in cold HEPES-buffered physiological salt solution (HEPES-PSS; 10 mM HEPES, 134 mM NaCl, 6 mM KCl, 1 mM MgCl2 hexahydrate, 2 mM CaCl2) dihydrate, and 7 mM dextrose; pH adjusted to 7.4 using 1 M NaOH). Ca^2+ imaging studies were performed in en face preparations of small Pas incubated with Fluo-4 AM (10 μM) and pluronic acid (0.04%) at 37° C. for 10 minutes. For studies after sham or lung IR surgery, small Pas were immediately dissected out after the indicated reperfusion time and incubated en face with Fluo-4 AM. For acute hypoxia-reoxygenation (HR) exposure, small Pas were washed with PBS, after which serum free/glucose-free endothelial cell medium was added. Small Pas were placed in a humidified, sealed hypoxia chamber (Billups-Rothenberg, San Diego, CA), which was subsequently flushed with 95% nitrogen/5% CO2 for 20 minutes and placed in a 37° C. incubator to initiate hypoxia. After 1 hour of hypoxia, the chamber was opened to terminate hypoxia. […] Fluo-4 was excited using a 488-nm solid-state laser, and emitted fluorescence was captured using a 525/36-nm band-pass filter. […] Baseline Ca^2+ signaling activity was recorded in the absence of CPA. […]

A further data set relates to lung IRI. The note with it: wild-type mice pretreated, left hilar ligation model; 1 mg/kg intravenous dose; cited from earlier work.
For data set [2] the following is noted: rat, in vivo; cited from earlier work.
Data set [3] relates to murine pulmonary microvascular endothelial cells. The note with it: murine PMVECs, acute hypoxia-reoxygenation; cited from earlier work.

For the molecule `Cc1ccc2c(c1)C=Cc1cc(C)ccc1C2c1cn(Cc2ccc(C(=O)Nc3nn[nH]n3)o2)c(=O)[nH]c1=S` [ARC, AR-C 118925XX], in the data set with mouse model of lung IRI, the “partial pressure of oxygen (PaO2) after IR (lung function)” value is reported as “improved” and the “pulmonary edema (lung wet-to-dry weight ratio) after IR” value is reported as “not in mice pre-treated with P2Y2R inhibitor AR-C”. Besides, in data set [1], the “HR-induced increase in endothelial Ca2+ signaling” value is reported as “inhibited”.

As for `O=C(NC1(c2ccccc2)CC1)c1c(CN2CCC(N3CCCCC3)CC2)c(-c2cccc(C(F)(F)F)c2)nc2cc(Br)ccc12` [GSK219, GSK2193874], in the data set with lung IRI, the “lung IRI” value was “significant attenuation”. In addition, the “plasma half-life (t1/2)” value in data set [2] is 10 h. Moreover, the “HR-induced secretion of CXCL1/KC” value in data set [3] is given as “attenuated”.
